Entries after “also recorded” stand apart in the source; their conditions may differ.
How the values were obtained:
Rat mammary tumor 13762 = assay: Comparative tumor response to DDP with and without NaDDTC rescue, Example 2; type: in vivo, Female F344 (Fischer) rats
Procedure: (§1) Female F344 (Fischer) rates, initial weight 100-150 g, were obtained from the Charles River Breeding Laboratory, Wilmington, MA. They were housed in methacrylate cages and given Purina rat chow and water ad libitum for at least one week. Lean weight of the rats were 150 g at the onset of experiments unless otherwise noted.
(§2) Mammary Tumor 13762 was obtained in the form of an implanted tumor in a female F344 rat. All intravenous injections were carried out under brief ether anesthesia.
Tumor inoculation was carried out as follows: two rats bearing tumors having a mean diameter of 2.5-3.5 cm were sacrificed using ether anesthesia. The tumors were excised immediately, finely minced, combined, and resuspended in 20-40 ml of normal saline. This suspension was filtered through a gauze pad to remove coarse pieces of tissue and the resulting suspension inoculated subcutaneously (0.2-0.5 ml/injection) into the left flank of each rat.

[1] = Reduction of toxicity (including bone marrow toxicity) of platinum compounds, Example 4; type: in vivo; conditions: platinum compounds of drawing 16, X=OH or H2O
[2] = Protection of rats against DDP toxicity by i.p. NaDDTC (BUN, weight loss, diarrhea, histopathology), Example 1 / Table 1; type: in vivo, Male F344 (Fischer) rats; conditions: for Incidence of Diarrhea: DDP […] i.v.; for BUN / Weight Loss: Day 5, DDP […] i.v.
Description: Male F344 (Fischer) rats (average weight, 150 g) were obtained from the Charles River Breeding Laboratory. They were divided into groups of four rats, placed in methacrylate cages, and given National Institute of Health chow for rodents and water ad lib, for 7 days. Average weight of the rats was 180 g (range, 160-200 g) when injected.
Tetraethylthiuram disulfide (disulfiram) was obtained from Sigma Chemical Co., St. Louis MO. […] Trav. Chim. 70:917 (1951); immediately prior to injection, it was dissolved in sterile water at a concentration of 100 mg/ml. Sodium bicarbonate was prepared in sterile water at a concentration of 50 mg/ml. All injections were carried out under brief ether anesthesia.
Otherwise, weight and BUN were determined at 5 days after injection, reportedly the time of maximal observed toxicity. Evidence of gastrointestinal toxicity was obtained qualitatively by noting the presence or absence of diarrhea 3-5 days after injection.
Randomly selected animals were sacrificed at 5 days after injection for study of histopathologic changes in the kidney and to note the presence or absence of hemorrhagic enteritis. Kidneys were removed, placed in Zenker's fixative, embedded in paraffin, sectioned at 6 μm, and stained with hematoxylin and eosin.

[3] = Comparative nephrotoxicity: low-dose i.v. vs high-dose i.p. NaDDTC rescue after DDP, Example 2; type: in vivo, Female F344 (Fischer) rats; conditions: for Kidney sections / Day 5 BUN (mean ±SEM) / Diarrhea / Weight loss on day 5: DDP 6 mg/kg i.v.
Procedure: as §1, §2

Pt/DNA complexes = conditions: cited from earlier work
[4] = thiourea administered prior to the platinum (II); cited from earlier work
[5] = system: thyroid hormone production; conditions: cited from earlier work
[6] = DDP 2 mg/kg i.v., NaDDTC 100 mg/kg i.v.
[7] = DDP 2 mg/kg, DDTC 750 mg/kg ip 2 hours later
[8] = DDP 8 mg/kg with DDTC rescue 750 mg/kg ip
[9] = DDTC 500 mg/kg ip 1/2 hour after DDP, n=4
[10] = DDTC 500 mg/kg ip 1 hour after DDP, n=4
[11] = DDTC 500 mg/kg ip 2 hours after DDP, n=4
[12] = DDTC 750 mg/kg ip 0 hours after DDP, n=12
[13] = DDTC 750 mg/kg ip 3/4 hour after DDP, n=5
[14] = DDTC 750 mg/kg ip 1 hour after DDP, n=16
[15] = DDTC 750 mg/kg ip 2 hours after DDP, n=14
[16] = DDTC 750 mg/kg ip 3 hours after DDP, n=10
[17] = DDTC 750 mg/kg ip 4 hours after DDP, n=7
[18] = DDTC 750 mg/kg ip 6 hours after DDP, n=5
[19] = DDTC 750 mg/kg ip at -1/2 hour (30 minutes before DDP), n=4
[20] = DDTC 750 mg/kg ip, rescue time printed 11/2 hours after DDP, n=15
[21] = NaDDTC administered between 1 and 4 hours after DDP
[22] = NaDDTC immediately after DDP (time=0 hour)
[23] = NaDDTC 100 mg/kg i.v. 2 hours after DDP
[24] = NaDDTC 750 mg/kg i.p. 2 hours after DDP

CCN(CC)C(=S)[S-].[Na+] [DDTC, sodium diethyldithiocarbamate]
Adverse effects on tumor response to DDP (Rat mammary tumor 13762; [6]): no adverse effects
Initial response, control vs intravenous rescue group (Rat mammary tumor 13762; [6]): Initial response was identical in both groups
Rats with relapse between days 25 and 30 (Rat mammary tumor 13762; DDP 2 mg/kg i.v., NaDDTC 100 mg/kg i.v. 2 hours after DDP, n=8): 2/8
Other (non-relapsed) rats through day 50 (Rat mammary tumor 13762; DDP 2 mg/kg i.v., NaDDTC 100 mg/kg i.v., n=8): essentially free of tumor through day 50
Minimum tumor diameter, day 23 (Rat mammary tumor 13762; DDP 2 mg/kg i.v., NaDDTC 750 mg/kg i.p. 2 hours after DDP, n=11): 1.3 cm
Rats with relapse by day 30 (Rat mammary tumor 13762; DDP 2 mg/kg i.v., NaDDTC 750 mg/kg i.p., n=11): 9/11
Mean tumor diameter by day 30 (Rat mammary tumor 13762; DDP 2 mg/kg i.v., NaDDTC 750 mg/kg i.p., relapsed rats): 2.2 cm
Disappearance of tumor (Rat mammary tumor 13762; [7]): disappearance of tumor was not observed
Initial response versus unrescued group (Rat mammary tumor 13762; [7]): identical to that of the unrescued group
Mean minimum tumor diameter at day 21 (Rat mammary tumor 13762; [7]): 1.2 cm
Mean tumor diameter at day 30 (Rat mammary tumor 13762; [7]): 3.0 cm
Relapse and subsequent tumor growth versus no rescue (Rat mammary tumor 13762; [7]): earlier onset of relapse and more rapid subsequent tumor growth
Deaths (Rat mammary tumor 13762; [8]): no deaths
Tumor-free rats by day 28 (Rat mammary tumor 13762; [8]): 1/8
Initial tumor response with or without NaDDTC rescue (Rat mammary tumor 13762; DDP 2, 4, and 8 mg/kg, NaDDTC 750 mg/kg ip): identical with or without NaDDTC rescue
Tumor response at DDP 4 and 8 mg/kg versus 2 mg/kg (Rat mammary tumor 13762; DDP 4 and 8 mg/kg, DDTC rescue 750 mg/kg ip): Qualitatively similar results
Local recurrence and tumor growth (Rat mammary tumor 13762; NaDDTC 750 mg/kg ip): locally recurring tumors recur earlier and grow more rapidly; also recorded: local recurrence commenced earlier and tumors grew more rapidly
Effect of ip rescue on initial tumor response (Rat mammary tumor 13762; ip route of rescue): does not seem to have any significant adverse effect upon initial tumor response
Reducing the toxicity (including bone marrow toxicity) of platinum compounds [1]: effective in reducing the toxicity (including bone marrow toxicity)
Incidence of Diarrhea ([2]; DDTC 750 mg/kg ip 0 hours after DDP): 0/6
Incidence of Diarrhea ([2]; DDTC 750 mg/kg ip 3/4 hour after DDP): 0/5
Incidence of Diarrhea ([2]; DDTC 750 mg/kg ip 1 hour after DDP): 0/8
Incidence of Diarrhea ([2]; DDTC 750 mg/kg ip 2 hours after DDP): 0/14
Incidence of Diarrhea ([2]; DDTC 750 mg/kg ip 6 hours after DDP): 2/5
Incidence of Diarrhea ([2]; DDTC 750 mg/kg ip 6 hours after DDP, listed as NaDDTC): two of the five
BUN [2, 9]: 152 ± 20 mg/dL
Weight Loss [2, 9]: 4 ± 2%
BUN [2, 10]: 90 ± 5 mg/dL
Weight Loss [2, 10]: 4 ± 1%
BUN [2, 11]: 72 ± 11 mg/dL
Weight Loss [2, 11]: 2 ± 2%
BUN [2, 12]: 214 ± 21 mg/dL
Weight Loss [2, 12]: 9 ± 1%
BUN [2, 13]: 56 ± 9 mg/dL
Weight Loss [2, 13]: 8 ± 2%
BUN [2, 14]: 63 ± 4 mg/dL
Weight Loss [2, 14]: 13 ± 1%
BUN [2, 15]: 95 ± 9 mg/dL
Weight Loss [2, 15]: 15 ± 1%
BUN [2, 16]: 77 ± 8 mg/dL
Weight Loss [2, 16]: 10 ± 1%
BUN [2, 17]: 106 ± 8 mg/dL
Weight Loss [2, 17]: 14 ± 1%
BUN [2, 18]: 209 ± 44 mg/dL
Weight Loss [2, 18]: 18 ± 2%
BUN [2, 19]: 418 ± 43 mg/dL
Weight Loss [2, 19]: 18 ± 1%
BUN [2, 20]: 62 ± 3 mg/dL
Weight Loss [2, 20]: 5 ± 1%
Reduction in BUN or weight loss ([2]; NaDDTC 6 hours after DDP): failed to demonstrate significant reduction either in BUN or weight loss
Rescue efficacy ([2]; NaDDTC 6 hours after DDP): only minimal rescue efficacy (if any)
Diarrhea [2, 21]: Diarrhea was not observed
Kidney sections, histopathology [2, 21]: barely discernible pale band of mild tubule degeneration in the outer zone of the outer medullary stripe
Necropsy, small intestine [2, 21]: grossly normal small intestine
Reduction in BUN and weight loss [2, 21]: Marked reduction
Decrease in weight loss [2, 22]: significant decrease in weight loss
Reduction of BUN levels [2, 22]: without reduction of BUN levels
Protection from nephrotoxic effects of DDP ([2]; NaDDTC ip 500-750 mg/kg, DDP doses as high as 8 mg/kg): would afford protection from the nephrotoxic effects of DDP
Kidney sections ([3]; NaDDTC 100 mg/kg i.v.): mild hydropic changes with occasional evidence of degeneration
Day 5 BUN (mean ±SEM) [3, 23]: 43±5 milligrams per deciliter
Diarrhea [3, 23]: not observed
Weight loss on day 5 [3, 23]: 14%
Kidney sections ([3]; NaDDTC 750 mg/kg i.p.): mild hydropic changes with occasional evidence of degeneration
Day 5 BUN (mean ±SEM) [3, 24]: 73±4 milligrams per deciliter
Diarrhea [3, 24]: not observed
Weight loss on day 5 [3, 24]: 9%
Inhibition of platinum-induced nephrotoxicity ([3]; administered intravenously): effectively inhibit platinum-induced nephrotoxicity without deleterious effects on tumor response
Protection against nephrotoxicity, intravenous vs intraperitoneal ([3]; low-dose i.v. vs. high-dose i.p. DDTC rescue): essentially equivalent for both routes

NC(N)=S [thiourea]
Reversal of Pt/DNA complexing (Pt/DNA complexes): does reverse Pt/DNA complexing
Efficacy of platinum (II) [4]: Decreased efficacy of platinum (II)
Inhibition of thyroid hormone production [5]: reported to inhibit thyroid hormone production
